Laboratory results as given in PubChem BioAssay (NCI).
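Five compound concentrations were applied to cells in 96-well plates for 48 hours; endpoints were derived by simple linear interpolation of the resulting dose-response curve. At the TGI there is no net growth.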

Experiments:
Assay in all cases: growth of human tumour cells (NCI), 48 h
786-0 renal = test system: 786-0 renal
A498 renal = test system: A498 renal
A549 NSCLC = test system: A549 NSCLC
ACHN renal = test system: ACHN renal
BT-549 breast = test system: BT-549 breast
CAKI-1 renal = test system: CAKI-1 renal
CCRF-CEM leukemia = test system: CCRF-CEM leukemia
COLO 205 colon = test system: COLO 205 colon
DLD-1 colon = test system: DLD-1 colon
DMS 114 small cell lung = test system: DMS 114 small cell lung
DMS 273 small cell lung = test system: DMS 273 small cell lung
DU-145 prostate = test system: DU-145 prostate
EKVX NSCLC = test system: EKVX NSCLC
HCC-2998 colon = test system: HCC-2998 colon
HCT-116 colon = test system: HCT-116 colon
HCT-15 colon = test system: HCT-15 colon
HL-60(TB) leukemia = test system: HL-60(TB) leukemia
HOP-18 NSCLC = test system: HOP-18 NSCLC
HOP-62 NSCLC = test system: HOP-62 NSCLC
HOP-92 NSCLC = test system: HOP-92 NSCLC
HS 578T breast = test system: HS 578T breast
HT29 colon = test system: HT29 colon
IGROV1 ovarian = test system: IGROV1 ovarian
K-562 leukemia = test system: K-562 leukemia
KM12 colon = test system: KM12 colon
KM20L2 colon = test system: KM20L2 colon
LOX IMVI melanoma = test system: LOX IMVI melanoma
LXFL 529 NSCLC = test system: LXFL 529 NSCLC
M14 melanoma = test system: M14 melanoma
M19-MEL melanoma = test system: M19-MEL melanoma
MALME-3M melanoma = test system: MALME-3M melanoma
MCF7 breast = test system: MCF7 breast
MDA-MB-231 breast = test system: MDA-MB-231 breast
MDA-MB-435 = test system: MDA-MB-435
MDA-N = test system: MDA-N
MOLT-4 leukemia = test system: MOLT-4 leukemia
NCI-H226 lung = test system: NCI-H226 lung
NCI-H23 lung = test system: NCI-H23 lung
NCI-H460 lung = test system: NCI-H460 lung
NCI-H522 lung = test system: NCI-H522 lung
NCI/ADR-RES ovarian = test system: NCI/ADR-RES ovarian
OVCAR-3 ovarian = test system: OVCAR-3 ovarian
OVCAR-4 ovarian = test system: OVCAR-4 ovarian
OVCAR-5 ovarian = test system: OVCAR-5 ovarian
OVCAR-8 ovarian = test system: OVCAR-8 ovarian
PC-3 prostate = test system: PC-3 prostate
RXF 393 renal = test system: RXF 393 renal
RXF-631 renal = test system: RXF-631 renal
SF-268 CNS = test system: SF-268 CNS
SF-295 CNS = test system: SF-295 CNS
SF-539 CNS = test system: SF-539 CNS
SK-MEL-2 melanoma = test system: SK-MEL-2 melanoma
SK-MEL-28 melanoma = test system: SK-MEL-28 melanoma
SK-MEL-5 melanoma = test system: SK-MEL-5 melanoma
SK-OV-3 ovarian = test system: SK-OV-3 ovarian
SN12C renal = test system: SN12C renal
SNB-19 CNS = test system: SNB-19 CNS
SNB-75 CNS = test system: SNB-75 CNS
SNB-78 CNS = test system: SNB-78 CNS
SR leukemia = test system: SR leukemia
SW-620 colon = test system: SW-620 colon
T-47D breast = test system: T-47D breast
TK-10 renal = test system: TK-10 renal
U251 CNS = test system: U251 CNS
UACC-257 melanoma = test system: UACC-257 melanoma
UACC-62 melanoma = test system: UACC-62 melanoma
UO-31 renal = test system: UO-31 renal
XF 498 CNS = test system: XF 498 CNS

SMILES: COc1cccc(/C=C2\CCC(CN(C)C)C2=O)c1 (stereo not drawn)
- TGI (786-0 renal): 8.57 µM
- TGI (A498 renal): 31.5 µM
- TGI (A549 NSCLC): 42.7 µM
- TGI (ACHN renal): 25.5 µM
- TGI (BT-549 breast): 15.2 µM
- TGI (CAKI-1 renal): 15.7 µM
- TGI (CCRF-CEM leukemia): 11.1 µM
- TGI (COLO 205 colon): 24.5 µM
- TGI (DLD-1 colon): 7.81 µM
- TGI (DMS 114 small cell lung): 42.4 µM
- TGI (DMS 273 small cell lung): 26.2 µM
- TGI (DU-145 prostate): 9.29 µM
- TGI (EKVX NSCLC): 42.1 µM
- TGI (HCC-2998 colon): 24.4 µM
- TGI (HCT-116 colon): 16 µM
- TGI (HCT-15 colon): 7.97 µM
- TGI (HL-60(TB) leukemia): 2.47 µM
- TGI (HOP-18 NSCLC): 33.2 µM
- TGI (HOP-62 NSCLC): 21 µM
- TGI (HOP-92 NSCLC): 33.9 µM
- TGI (HS 578T breast): > 89.4 µM
- TGI (HT29 colon): 40.7 µM
- TGI (IGROV1 ovarian): 23.4 µM
- TGI (K-562 leukemia): 4.89 µM
- TGI (KM12 colon): 15.1 µM
- TGI (KM20L2 colon): 31.7 µM
- TGI (LOX IMVI melanoma): 3.51 µM
- TGI (LXFL 529 NSCLC): 6.45 µM
- TGI (M14 melanoma): 9.62 µM
- TGI (M19-MEL melanoma): 21.5 µM
- TGI (MALME-3M melanoma): 14 µM
- TGI (MCF7 breast): 13.2 µM
- TGI (MDA-MB-231 breast): 14 µM
- TGI (MDA-MB-435): 7.02 µM
- TGI (MDA-N): 16.8 µM
- TGI (MOLT-4 leukemia): 5.19 µM
- TGI (NCI-H226 lung): 33.6 µM
- TGI (NCI-H23 lung): 27.3 µM
- TGI (NCI-H460 lung): 35 µM
- TGI (NCI-H522 lung): 6.15 µM
- TGI (NCI/ADR-RES ovarian): 6.56 µM
- TGI (OVCAR-3 ovarian): 11.9 µM
- TGI (OVCAR-4 ovarian): 22.2 µM
- TGI (OVCAR-5 ovarian): 29.6 µM
- TGI (OVCAR-8 ovarian): 9.55 µM
- TGI (PC-3 prostate): 27.2 µM
- TGI (RXF 393 renal): 12.3 µM
- TGI (RXF-631 renal): 20.2 µM
- TGI (SF-268 CNS): 33.5 µM
- TGI (SF-295 CNS): 30.8 µM
- TGI (SF-539 CNS): 27.9 µM
- TGI (SK-MEL-2 melanoma): 26.2 µM
- TGI (SK-MEL-28 melanoma): 8.52 µM
- TGI (SK-MEL-5 melanoma): 24.8 µM
- TGI (SK-OV-3 ovarian): 29.2 µM
- TGI (SN12C renal): 22.8 µM
- TGI (SNB-19 CNS): 29.5 µM
- TGI (SNB-75 CNS): 38.2 µM
- TGI (SNB-78 CNS): 66.5 µM
- TGI (SR leukemia): 8.43 µM
- TGI (SW-620 colon): 8.52 µM
- TGI (T-47D breast): 16.6 µM
- TGI (TK-10 renal): 24.3 µM
- TGI (U251 CNS): 26.5 µM
- TGI (UACC-257 melanoma): 12.7 µM
- TGI (UACC-62 melanoma): 20.9 µM
- TGI (UO-31 renal): 20.1 µM
- TGI (XF 498 CNS): 33.6 µM
